Assay: Log P by HPLC on reversed phase columns (EEC directive 79/831 Annex V.A8)
Assay type: physicochemical
Details: reversed phase HPLC column; method [a]: LC-UV, acidic range, 0.1% formic acid in water and acetonitrile as eluent
Procedure: Log P values: […] If more than one Log P value is available within the same method, all the values are given and separated by “+”. Calibration was done with straight-chain alkan2-ones (with 3 to 16 carbon atoms) with known Log P values (measurement of Log P values using retention times with linear interpolation between successive alkanones). Lambda-max-values were determined using UV-spectra from 200 nm to 400 nm and the peak values of the chromatographic signals.
Work on CC(O)(Cn1nc[nH]c1=S)c1ccc(Oc2ccc(Cl)cc2)nc1C(F)(F)F (centres unmarked) [I-S-03, 2-[2-[6-(4-chlorophenoxy)-2-(trifluoromethyl)-3-pyridyl]-2-hydroxy-propyl]-4H-1,2,4-triazole-3-thione] yielded a chromatographic logP of 3.11. In the case of OC(Cn1nc[nH]c1=S)(c1ccc(Oc2ccc(Br)cc2)nc1C(F)(F)F)C1CC1 (centres unmarked) [I-S-04, 2-[2-[6-(4-bromophenoxy)-2-(trifluoromethyl)-3-pyridyl]-2-cyclopropyl-2-hydroxy-ethyl]-4H-1,2,4-triazole-3-thione], the chromatographic logP is reported as 3.87. For CC(O)(Cn1nc[nH]c1=S)c1ccc(Oc2ccc(Br)cc2)nc1C(F)(F)F (centres unmarked) [I-S-01, 2-[2-[6-(4-bromophenoxy)-2-(trifluoromethyl)-3-pyridyl]-2-hydroxy-propyl]-4H-1,2,4-triazole-3-thione], the chromatographic logP was 3.21. For OC(Cn1nc[nH]c1=S)(c1ccc(Oc2ccccc2)nc1C(F)(F)F)C1CC1 (centres unmarked) [I-S-06, 2-[2-cyclopropyl-2-hydroxy-2-[6-phenoxy-2-(trifluoromethyl)-3-pyridyl]ethyl]-4H-1,2,4-triazole-3-thione], the chromatographic logP was 3.27. Work on CC(O)(Cn1nc[nH]c1=S)c1ccc(Oc2ccccc2)nc1C(F)(F)F (centres unmarked) [I-S-02, 2-[2-hydroxy-2-[6-phenoxy-2-(trifluoromethyl)-3-pyridyl]propyl]-4H-1,2,4-triazole-3-thione] yielded a chromatographic logP of 2.66.

— US20200095223A1, “NOVEL TRIAZOLETHIONE DERIVATIVES” (priority 2017, published 2020)
